In patent publication US11123337B2, “4-methylsulfonyl-substituted piperidine urea compounds” (MYOKARDIA, INC., priority 2015, dated 2021):

Target: bovine cardiac myosin (Bos taurus, UniProt Q9BE39)
Experiment: Myosin activation assay (PK/LDH-coupled ATPase, bovine cardiac myofibrils)
Type: biochemical
Conditions: AC20 = concentration at which total response is increased by twenty percent
Description: Small molecule agents were assessed for their ability to activate the enzymatic activity of bovine cardiac myosin using a biochemical assay that couples the release of ADP (adenosine diphosphate) from cardiac myosin to an enzymatic coupling system consisting of pyruvate kinase and lactate dehydrogenase (PK/LDH) and monitoring the absorbance decrease of NADH (at 340 nm) as a function of time. PK converts ADP to ATP (adenosine triphosphate) by converting PEP (phosphoenolpyruvate) to pyruvate. Pyruvate is then converted to lactate by LDH by converting NADH (nicotinamide adenine dinucleotide) to NAD (oxidized nicotinamide adenine dinucleotide). The source of cardiac myosin was from bovine heart in the form of skinned myofibrils. Prior to testing small molecule agents, the bovine myofibrils were assessed for their calcium responsiveness and the calcium concentration that achieves either a 50% (pCa50 or pCa=˜6) or <5% (pCa=10) activation of the myofibril system was chosen as the final condition for assessing the activation activity of the small molecule agents. All enzymatic activity was measured in a buffered solution containing 12 mM PIPES (piperazine-N,N′-bis(2-ethanesulfonic acid), 2 mM magnesium chloride at pH 6.8 (PM12 buffer). Final assay conditions were 1 mg/mL of bovine cardiac myofibrils, 0.4 mM PK/LDH, 50 uM ATP, 0.1 mg/mL BSA (bovine serum albumin), 10 ppm antifoam, 2 mM BME, 0.5 mM NADH, 1.5 mM PEP at the desired free calcium concentration required to achieve either 50% or <5% activation of the myofibrils.
A dilution series of compound was created in DMSO such that the final desired concentration of compound would be achieved in a volume of […] with a fixed DMSO concentration of 3.3% (v/v). Typically a 1 μL of the dilution series was added to a 384 well plate to achieve a 10 point dose response. Following the addition of 14 μL of a solution containing bovine cardiac myofibrils, PK/LDH and a solution of calcium (that achieved the desired activation), the enzymatic reaction was started with the addition of 15 μL of a solution containing ATP, PEP and NADH. The reaction progress was followed in a PerkinElmer Envision plate reader at ambient temperature using clear bottom plates. The plate reader was configured to read absorbance at 340 nm in kinetics mode for 15 minutes. Data were recorded as the slope of the absorbance response to time. The slopes of the absorbance response as a function of time were normalized to slopes on the plate containing DMSO. This normalized rate was then plotted as a function of small molecule concentration and the data was fitted to a four-parameter fit using EXCEL XLfit. The concentration at which the total response is increased by twenty or fifty percent is reported as AC20 or AC50.

Sequence of bovine cardiac myosin (Q9BE39 whole entry): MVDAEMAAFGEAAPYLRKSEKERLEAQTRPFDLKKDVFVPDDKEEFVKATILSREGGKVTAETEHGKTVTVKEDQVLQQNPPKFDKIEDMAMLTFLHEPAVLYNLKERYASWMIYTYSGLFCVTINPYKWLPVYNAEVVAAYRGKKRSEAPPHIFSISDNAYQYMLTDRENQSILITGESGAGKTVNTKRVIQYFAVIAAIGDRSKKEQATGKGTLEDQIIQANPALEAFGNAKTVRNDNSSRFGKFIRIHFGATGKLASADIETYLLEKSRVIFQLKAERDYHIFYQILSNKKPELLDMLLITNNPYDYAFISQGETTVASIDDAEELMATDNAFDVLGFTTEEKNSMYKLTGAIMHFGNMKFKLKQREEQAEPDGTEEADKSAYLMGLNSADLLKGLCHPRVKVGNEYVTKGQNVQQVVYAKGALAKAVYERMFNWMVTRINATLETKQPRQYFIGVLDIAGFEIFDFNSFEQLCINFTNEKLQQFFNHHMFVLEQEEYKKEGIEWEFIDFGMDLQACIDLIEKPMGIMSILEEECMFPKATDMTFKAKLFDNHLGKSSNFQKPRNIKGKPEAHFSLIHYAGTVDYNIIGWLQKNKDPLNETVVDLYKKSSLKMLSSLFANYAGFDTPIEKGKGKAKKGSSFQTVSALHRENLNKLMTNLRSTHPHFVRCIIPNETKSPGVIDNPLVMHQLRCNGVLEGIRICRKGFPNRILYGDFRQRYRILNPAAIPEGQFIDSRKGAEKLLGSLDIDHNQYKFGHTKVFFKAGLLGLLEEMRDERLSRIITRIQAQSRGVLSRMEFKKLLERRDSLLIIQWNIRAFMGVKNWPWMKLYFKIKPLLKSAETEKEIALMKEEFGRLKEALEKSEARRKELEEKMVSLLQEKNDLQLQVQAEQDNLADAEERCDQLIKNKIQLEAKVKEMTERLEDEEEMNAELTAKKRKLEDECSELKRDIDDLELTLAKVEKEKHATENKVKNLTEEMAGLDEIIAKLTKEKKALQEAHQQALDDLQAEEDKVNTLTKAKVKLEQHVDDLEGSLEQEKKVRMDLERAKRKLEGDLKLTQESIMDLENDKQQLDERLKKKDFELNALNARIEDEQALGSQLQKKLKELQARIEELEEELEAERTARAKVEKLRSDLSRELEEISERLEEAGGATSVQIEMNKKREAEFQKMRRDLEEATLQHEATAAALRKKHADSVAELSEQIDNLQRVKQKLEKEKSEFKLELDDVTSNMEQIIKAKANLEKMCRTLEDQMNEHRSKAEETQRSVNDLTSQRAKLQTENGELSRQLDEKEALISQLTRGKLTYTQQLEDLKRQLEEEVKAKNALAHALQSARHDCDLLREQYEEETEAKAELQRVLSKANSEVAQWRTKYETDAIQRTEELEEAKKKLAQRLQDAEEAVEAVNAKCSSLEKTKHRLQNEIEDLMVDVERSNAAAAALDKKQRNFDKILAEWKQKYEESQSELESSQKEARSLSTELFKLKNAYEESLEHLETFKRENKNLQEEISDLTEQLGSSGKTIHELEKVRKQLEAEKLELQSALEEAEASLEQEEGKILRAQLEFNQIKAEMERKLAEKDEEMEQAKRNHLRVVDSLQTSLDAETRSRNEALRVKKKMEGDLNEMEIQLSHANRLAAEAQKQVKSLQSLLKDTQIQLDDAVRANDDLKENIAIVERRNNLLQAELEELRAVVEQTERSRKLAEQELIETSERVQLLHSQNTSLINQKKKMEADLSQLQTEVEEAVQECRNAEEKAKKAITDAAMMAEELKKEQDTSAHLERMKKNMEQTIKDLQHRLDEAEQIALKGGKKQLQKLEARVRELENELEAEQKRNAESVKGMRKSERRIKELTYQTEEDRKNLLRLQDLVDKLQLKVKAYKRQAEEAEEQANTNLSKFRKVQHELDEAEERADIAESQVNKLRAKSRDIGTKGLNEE
Sequence of bovine cardiac myosin (P85100 whole entry partner): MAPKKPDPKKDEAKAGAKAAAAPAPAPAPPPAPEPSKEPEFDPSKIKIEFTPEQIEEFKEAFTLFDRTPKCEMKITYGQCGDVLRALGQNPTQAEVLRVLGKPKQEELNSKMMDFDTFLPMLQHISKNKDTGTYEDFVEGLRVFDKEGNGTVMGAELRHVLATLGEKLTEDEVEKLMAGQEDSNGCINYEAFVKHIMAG
Sequence of bovine cardiac myosin (Q3SZE5 whole entry partner): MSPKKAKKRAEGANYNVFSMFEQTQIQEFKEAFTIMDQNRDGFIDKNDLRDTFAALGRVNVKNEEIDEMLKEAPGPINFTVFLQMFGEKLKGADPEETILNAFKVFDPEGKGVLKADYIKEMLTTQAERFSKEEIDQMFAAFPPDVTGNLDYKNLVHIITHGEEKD

| SMILES | Myosin Activation (AC20) |
| --- | --- |
| CC(C)(C1CCN(C(=O)Nc2ccnnc2)CC1)S(=O)(=O)c1ccc(C(F)(F)F)cc1 [Compound 181, N-(pyridazin-4-yl)-4-(2-((4-(trifluoromethyl)phenyl)sulfonyl)propan-2-yl)piperidine-1-carboxamide] | ++ (++ represents myosin activation value AC20 from 2 μM-5 μM) |
| Cn1nc(C(F)F)cc1S(=O)(=O)C(C)(F)C1CCN(C(=O)Nc2ccnnc2)CC1 (stereo not shown) [Compound 17, 4-(1-((3-(difluoromethyl)-1-methyl-1H-pyrazol-5-yl)sulfonyl)-1-fluoroethyl)-N-(pyridazin-4-yl)piperidine-1-carboxamide] | +++ (+++ represents myosin activation value AC20 < 2 μM) |
| O=C(Nc1ccnnc1)N1CCC(C(F)(F)S(=O)(=O)c2ccc(C(F)(F)F)c(F)c2)CC1 [Compound 69, 4-(difluoro((3-fluoro-4-(trifluoromethyl)phenyl)sulfonyl)methyl)-N-(pyridazin-4-yl)piperidine-1-carboxamide] | ++ (++ represents myosin activation value AC20 from 2 μM-5 μM) |
| O=C(Nc1ccnnc1)N1CCC(C(F)(F)S(=O)(=O)c2cccn3ccnc23)CC1 [Compound 22, 4-(Difluoro(imidazo[1,2-a]pyridin-8-ylsulfonyl)methyl)-N-(pyridazin-4-yl)piperidine-1-carboxamide] | + (+ represents myosin activation value AC20 > 5 μM) |
| Cn1nccc1S(=O)(=O)C(C)(C)C1CCN(C(=O)Nc2cnns2)CC1 [Compound 193, 4-(2-((1-methyl-1H-pyrazol-5-yl)sulfonyl)propan-2-yl)-N-(1,2,3-thiadiazol-5-yl)piperidine-1-carboxamide] | +++ (+++ represents myosin activation value AC20 < 2 μM) |
| CC(F)(C1CCN(C(=O)Cc2ccnnc2)CC1)S(=O)(=O)c1cccc(F)c1 (stereo not shown) [Compound 10, 1-(4-(1-Fluoro-1-((3-fluorophenyl)sulfonyl)ethyl)piperidin-1-yl)-2-(pyridazin-4-yl)ethan-1-one] | + (+ represents myosin activation value AC20 > 5 μM) |
| Cn1nccc1S(=O)(=O)C(C)(C)C1CCN(C(=O)Nc2ccnc(F)c2)CC1 [Compound 134, N-(2-fluoropyridin-4-yl)-4-(2-((1-methyl-1H-pyrazol-5-yl)sulfonyl)propan-2-yl)piperidine-1-carboxamide] | ++ (++ represents myosin activation value AC20 from 2 μM-5 μM) |
| Cn1nccc1S(=O)(=O)C1(C2CCN(C(=O)Nc3ccnnc3)CC2)CCC1 [Compound 174, 4-(1-((1-methyl-1H-pyrazol-5-yl)sulfonyl)cyclobutyl)-N-(pyridazin-4-yl)piperidine-1-carboxamide] | +++ (+++ represents myosin activation value AC20 < 2 μM) |
| Cc1cc(S(=O)(=O)C(C)(C)C2CCN(C(=O)Nc3cnns3)CC2)n(C)n1 [Compound 188, 4-(2-((1,3-dimethyl-1H-pyrazol-5-yl)sulfonyl)propan-2-yl)-N-(1,2,3-thiadiazol-5-yl)piperidine-1-carboxamide] | +++ (+++ represents myosin activation value AC20 < 2 μM) |
| CCn1nccc1S(=O)(=O)C(C)(C)C1CCN(C(=O)Nc2ccnnc2)CC1 [Compound 185, 4-(2-((1-ethyl-1H-pyrazol-5-yl)sulfonyl)propan-2-yl)-N-(pyridazin-4-yl)piperidine-1-carboxamide] | + (+ represents myosin activation value AC20 > 5 μM) |
| CC(C)(C1CCN(C(=O)Nc2ccc(Cl)nc2)CC1)S(=O)(=O)c1cccc(F)c1 [Compound 159, N-(6-chloropyridin-3-yl)-4-(2-((3-fluorophenyl)sulfonyl)propan-2-yl)piperidine-1-carboxamide] | ++ (++ represents myosin activation value AC20 from 2 μM-5 μM) |
| CC(C)(C1CCN(C(=O)Nc2ccnnc2)CC1)S(=O)(=O)c1ccccc1C(F)(F)F [Compound 195, N-(pyridazin-4-yl)-4-(2-((2-(trifluoromethyl)phenyl)sulfonyl)propan-2-yl)piperidine-1-carboxamide] | ++ (++ represents myosin activation value AC20 from 2 μM-5 μM) |
| CC(C)(C)OC(=O)n1cc(NC(=O)N2CCC(C(C)(F)S(=O)(=O)c3cccc(F)c3)CC2)cn1 (stereo not shown) [Compound 237, tert-butyl 4-(4-(1-fluoro-1-((3-fluorophenyl)sulfonyl)ethyl)piperidine-1-carboxamido)-1H-pyrazole-1-carboxylate] | + (+ represents myosin activation value AC20 > 5 μM) |
| C[C@H](O)c1cc(NC(=O)N2CCC(C(F)(F)S(=O)(=O)c3cccc(F)c3)CC2)ccn1 [Compound 97, (S)-4-(difluoro((3-fluorophenyl)sulfonyl)methyl)-N-(2-(1-hydroxyethyl)pyridin-4-yl)piperidine-1-carboxamide] | + (+ represents myosin activation value AC20 > 5 μM) |
| CC(F)(C1CCN(C(=O)Nc2ccnnc2)CC1)S(=O)(=O)c1cc(F)cc(F)c1 (stereo not shown) [Compound 275, 4-(1-((3,5-difluorophenyl)sulfonyl)-1-fluoroethyl)-N-(pyridazin-4-yl)piperidine-1-carboxamide] | +++ (+++ represents myosin activation value AC20 < 2 μM) |
| CC(C)(C1CCN(C(=O)Nc2ccns2)CC1)S(=O)(=O)c1ccccc1C#N [Compound 201, 4-(2-((2-cyanophenyl)sulfonyl)propan-2-yl)-N-(isothiazol-5-yl)piperidine-1-carboxamide] | + (+ represents myosin activation value AC20 > 5 μM) |
| CC(C)(C1CCN(C(=O)Nc2ccns2)CC1)S(=O)(=O)c1cccc(F)c1 [Compound 218, 4-(2-((3-fluorophenyl)sulfonyl)propan-2-yl)-N-(isothiazol-5-yl)piperidine-1-carboxamide] | ++ (++ represents myosin activation value AC20 from 2 μM-5 μM) |
| Cc1cc(C#N)ccc1S(=O)(=O)C(C)(C)C1CCN(C(=O)Nc2ccnnc2)CC1 [Compound 196, 4-(2-((4-cyano-2-methylphenyl)sulfonyl)propan-2-yl)-N-(pyridazin-4-yl)piperidine-1-carboxamide] | ++ (++ represents myosin activation value AC20 from 2 μM-5 μM) |
| Cn1nccc1S(=O)(=O)C1(C2CCN(C(=O)Nc3cnns3)CC2)CCC1 [Compound 175, 4-(1-((1-methyl-1H-pyrazol-5-yl)sulfonyl)cyclobutyl)-N-(1,2,3-thiadiazol-5-yl)piperidine-1-carboxamide] | +++ (+++ represents myosin activation value AC20 < 2 μM) |
| CC(C)n1cc(S(=O)(=O)CC2CCN(C(=O)Nc3ccncc3)CC2)cn1 [Compound 1, 4-(((1-Isopropyl-1H-pyrazol-4-yl)sulfonyl)methyl)-N-(pyridin-4-yl)piperidine-1-carboxamide] | + (+ represents myosin activation value AC20 > 5 μM) |
| Cn1nccc1S(=O)(=O)C(C)(F)C1CCN(C(=O)Nc2ccnc(F)c2)CC1 (stereo not shown) [Compound 226, 4-(1-fluoro-1-((1-methyl-1H-pyrazol-5-yl)sulfonyl)ethyl)-N-(2-fluoropyridin-4-yl)piperidine-1-carboxamide] | + (+ represents myosin activation value AC20 > 5 μM) |
| Cn1cc(S(=O)(=O)C(C)(F)C2CCN(C(=O)Nc3ccc(F)nc3)CC2)c(C(F)(F)F)n1 (stereo not shown) [Compound 244, 4-(1-fluoro-1-((1-methyl-3-(trifluoromethyl)-1H-pyrazol-4-yl)sulfonyl)ethyl)-N-(6-fluoropyridin-3-yl)piperidine-1-carboxamide] | + (+ represents myosin activation value AC20 > 5 μM) |
